Calls of active or inactive are those of the source. The calls are words filed in the database; no cut-off is given here.
Experiments:
[1] = Drug excretion in female BALB/c mouse bearing mouse 4T1 cells at 1.8 mg/kg, iv measured up to 12 hrs by fluorescence imaging analysis; assay type: ADME, organism-based; details: in vivo
[2] = Toxicity in female BALB/c mouse bearing mouse 4T1 cells assessed as body weight at 1.8 mg/kg, iv pretreated for 4 hrs followed by exposure to laser irradiation of 808 nm for 5 mins on every 2 days treated for 15 days; assay type: organism-based; details: in vivo, 360 h, time 15 day
4T1 [3] = test: Antitumor activity against mouse 4T1 cells implanted in female BALB/c mouse assessed as tumor growth inhibition at 1.8 mg/kg, iv pretreated for 4 hrs followed by exposure to laser irradiation of 808 nm for 5 mins on every 2 days treated for 15 days; assay type: functional, organism-based; details: time 15.0 day
4T1 [4] = test: Antitumor activity against mouse 4T1 cells implanted in female BALB/c mouse assessed as cellular damage at 1.8 mg/kg, iv treated on every 2 days treated for 15 days by H and E staining based analysis; assay type: functional, organism-based; details: time 15.0 day
[5] = Toxicity in female BALB/c mouse bearing mouse 4T1 cells assessed as damage in lung at 1.8 mg/kg, iv pretreated for 4 hrs followed by exposure to laser irradiation of 808 nm for 5 mins on every 2 days treated for 15 days by H and E staining based analysis; assay type: organism-based; details: in vivo, 360 h, time 15 day
[6] = Toxicity in ICR mouse bearing mouse H22 cells assessed as damage in kidney at 1.8 mg/kg, iv pretreated for 4 hrs followed by exposure to laser irradiation of 808 nm for 5 mins on every 2 days treated for 15 days by H and E staining based analysis; assay type: organism-based; details: in vivo, 360 h, time 15 day
[7] = Aqueous solubility of compound by absorbance based assay; assay type: physicochemical; details: buffer
4T1 [8] = test: Cytotoxicity against mouse 4T1 cells assessed as cell viability under dark condition up to 25 uM incubated for 24 hrs by MTT assay relative to control; assay type: functional
4T1 [9] = test: Antitumor activity against mouse 4T1 cells implanted in female BALB/c mouse assessed as decrease in tumor weight at 2.5 mg/kg, iv pretreated for 4 hrs followed by exposure to laser irradiation of 808 nm for 5 mins on every 2 days treated for 15 days; assay type: functional, organism-based; details: time 15.0 day
4T1 [10] = test: Antitumor activity against mouse 4T1 cells implanted in female BALB/c mouse assessed as loosely arranged cells at 2.5 mg/kg, iv pretreated for 4 hrs followed by exposure to laser irradiation of 808 nm for 5 mins on every 2 days treated for 15 days by H and E staining based analysis; assay type: functional, organism-based; details: time 15.0 day
[11] = Toxicity in female BALB/c mouse bearing mouse 4T1 cells assessed as damage in liver at 2.5 mg/kg, iv pretreated for 4 hrs followed by exposure to laser irradiation of 808 nm for 5 mins on every 2 days treated for 15 days by H and E staining based analysis; assay type: organism-based; details: in vivo, 360 h, time 15 day
[12] = Toxicity in female BALB/c mouse bearing mouse 4T1 cells assessed as damage in spleen at 2.5 mg/kg, iv pretreated for 4 hrs followed by exposure to laser irradiation of 808 nm for 5 mins on every 2 days treated for 15 days by H and E staining based analysis; assay type: organism-based; details: in vivo, 360 h, time 15 day
[13] = Toxicity in female BALB/c mouse bearing mouse 4T1 cells assessed as damage in lung at 2.5 mg/kg, iv pretreated for 4 hrs followed by exposure to laser irradiation of 808 nm for 5 mins on every 2 days treated for 15 days by H and E staining based analysis; assay type: organism-based; details: in vivo, 360 h, time 15 day
[14] = Toxicity in ICR mouse bearing mouse H22 cells assessed as damage in spleen at 2.5 mg/kg, iv pretreated for 4 hrs followed by exposure to laser irradiation of 808 nm for 5 mins on every 2 days treated for 15 days by H and E staining based analysis; assay type: organism-based; details: in vivo, 360 h, time 15 day
[15] = Toxicity in ICR mouse bearing mouse H22 cells assessed as damage in kidney at 2.5 mg/kg, iv pretreated for 4 hrs followed by exposure to laser irradiation of 808 nm for 5 mins on every 2 days treated for 15 days by H and E staining based analysis; assay type: organism-based; details: in vivo, 360 h, time 15 day

Structure (SMILES)	Drug excretion [1]	Activity [2] [g]	inhibition (4T1 [3])	Activity (4T1 [4])	Activity [5]	Activity [6]	solubility [7]	Activity (4T1 [8]) [%]	Activity (4T1 [9])	Activity (4T1 [10])	Activity [11]	Activity [12]	Activity [13]	Activity [14]	Activity [15]
COC(=O)C(=C\C=C\C1=[N+](C)c2ccccc2C1(C)C)/C=C/C=C1/N(C)c2ccccc2C1(C)C.[I-]	Active	18	Active; Minimal Effect Was Observed	Not active; Minor Cell Damage Was Observed	Non-toxic	Non-toxic									
COCCOCCOCCN1/C(=C/C=C/C(=C/C=C/C2=[N+](CCOCCOCCOC)c3ccccc3C2(C)C)C(=O)OC)C(C)(C)c2ccccc21.[I-]							soluble	55	Active	Active	Non-toxic	Non-toxic	Non-toxic	Non-toxic	Non-toxic

Source: ChEMBL document CHEMBL6182861, “Structural modification of heptamethine indocyanine dyes with improved aqueous solubility and stability for photothermal therapy” (Eur J Med Chem, 2025)
